The results in this text go back to ChEMBL document CHEMBL4304812, “Synthesis and Bioactivity of the Alanyl Phosphonamidate Stereoisomers Derived from a Butyrophilin Ligand” (ACS Med Chem Lett, 2019).

For data set [1], the target named is T1, Butyrophilin subfamily 3 member A1 (Homo sapiens, UniProt O00481). The data set can be described thus: Activation of butyrophilin 3A1 in human K562 cells assessed as interferon-gamma production pretreated for 15 mins followed by HMBPP-treated Vgamma9Vdelta2 T cells addition and measured after 20 hrs by ELISA. The class given is cell-based.
The target of data set [2] is T1, Butyrophilin subfamily 3 member A1. In words: Activation of butyrophilin 3A1 in human K562 cells assessed as interferon-gamma production pretreated for 60 mins followed by HMBPP-treated Vgamma9Vdelta2 T cells addition and measured after 20 hrs by ELISA. The class given is cell-based.
Data set [3] has the same target. The data set can be described thus: Activation of butyrophilin 3A1 in human K562 cells assessed as interferon-gamma production pretreated for 240 mins followed by HMBPP-treated Vgamma9Vdelta2 T cells addition and measured after 20 hrs by ELISA. The class given is cell-based. For orientation: An ELISA detects its analyte on a solid surface through an enzyme-linked reagent.

A short description of data set [4]: Stability in 50% human plasma at 100 uM measured for 24 hrs by LCMS analysis. The class given is ADME, cell-free.
Data set [5] concerns PBMC. The data set can be described thus: Activation of cell proliferation in human PBMC incubated for 72 hrs by Cell Quanti Blue reagent based assay. Format: functional.

T1 sequence (O00481 whole entry): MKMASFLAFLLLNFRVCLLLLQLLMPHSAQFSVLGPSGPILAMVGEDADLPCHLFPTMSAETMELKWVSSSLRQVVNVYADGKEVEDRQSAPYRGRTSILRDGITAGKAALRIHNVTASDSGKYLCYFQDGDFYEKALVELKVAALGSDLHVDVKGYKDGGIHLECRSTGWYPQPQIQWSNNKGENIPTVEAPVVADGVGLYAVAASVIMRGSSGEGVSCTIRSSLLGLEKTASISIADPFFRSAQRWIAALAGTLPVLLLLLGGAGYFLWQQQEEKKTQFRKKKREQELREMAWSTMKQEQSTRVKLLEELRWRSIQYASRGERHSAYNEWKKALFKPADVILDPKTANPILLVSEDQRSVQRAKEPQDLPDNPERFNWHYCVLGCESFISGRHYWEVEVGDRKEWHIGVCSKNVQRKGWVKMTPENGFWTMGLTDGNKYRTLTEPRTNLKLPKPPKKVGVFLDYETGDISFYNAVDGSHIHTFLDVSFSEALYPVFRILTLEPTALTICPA

Broadly, the EC50 is the concentration that produces a half-maximal response. Regarding `CCOC(=O)[C@@H](C)N[P@@](=O)(CC/C=C(\C)CO)Oc1ccccc1`, the EC50 in data set [1] was 4600 nM; in data set [2], 1500 nM; in data set [3] it was 430 nM. The Stability entry in data set [4] is listed as “Stable”.

On to `C/C(=C\CCP(=O)(OCOC(=O)C(C)(C)C)Oc1cccc2ccccc12)CO` (configuration not stated), for which a half-maximal effect in data set [5] (EC50) was put at 0.79 nM.

In data set [5], `C/C(=C\COP(=O)(O)OP(=O)(O)O)CO` registered an EC50 of 0.5 nM.

As to `CCOC(=O)CNP(=O)(CC/C=C(\C)CO)Oc1ccccc1` (racemic), the EC50 was 1500 nM in data set [1], 230 nM in data set [2] and 51 nM in data set [3].

The compound `C/C(=C\CCP(=O)(O)O)CO` returned an EC50 in data set [5] of 4000 nM.

Regarding `C/C(=C\CCP(=O)(OCOC(=O)C(C)(C)C)Oc1ccccc1)CO` (configuration not stated), the response in data set [5] was half-maximal at 14 nM (EC50).

Take `CCOC(=O)[C@H](C)N[P@@](=O)(CC/C=C(\C)CO)Oc1ccccc1`: the EC50 in data set [1] came to 200 nM; in data set [2], 79 nM; in data set [5] it was 0.28 nM; in data set [3], 21 nM. In data set [4], the Stability entry is recorded as “Stable”.

As to `CCOC(=O)[C@@H](C)N[P@](=O)(CC/C=C(\C)CO)Oc1ccccc1`, the EC50 in data set [1] is 6000 nM; in data set [2], 2000 nM; in data set [3], 520 nM. Also, in data set [4], the Stability entry is listed as “Stable”.

For `CCOC(=O)[C@H](C)N[P@](=O)(CC/C=C(\C)CO)Oc1ccccc1`, the EC50 in data set [1] was found to be 460 nM; in data set [2], 160 nM; in data set [5] it was 0.43 nM; in data set [3], 43 nM. Also, the Stability result in data set [4] is given as “Stable”.

`C/C(=C\CCP(=O)(O)OP(=O)(O)O)CO`: the results for the EC50 in data set [1], in data set [2] and in data set [3] were 7600 nM, 1200 nM and 280 nM, respectively.

`O=P(O)(O)C(O)(Cn1ccnc1)P(=O)(O)O` [ZOLEDRONIC ACID]: the values for the EC50 in data set [1], in data set [2] and in data set [3] were greater than 100000 nM, 79000 nM and 23000 nM, respectively.

`C/C(=C\CCP(=O)(OCOC(=O)C(C)(C)C)OCOC(=O)C(C)(C)C)CO`: in data set [4], the Stability entry is listed as “Stable”.
